Experimental data published in patent publication US20260185169A1, “MOLECULAR SIGNATURES TO PREDICT LONG-TERM LIVER FIBROSIS PROGRESSION” (THE BOARD OF REGENTS OF THE UNIVERSITY OF TEXAS SYSTEM, priority 2022, published 2026).

System: FPS and molecular pathways
Assay: Modulation of FPS and molecular pathways in hepatic transcriptome (RNA-Seq, CES/GSEI) in CENTAUR trial biopsies
Format: in vivo, human
From the text: Archived formalin-fixed liver tissues from index biopsy were used for histological assessment in all patients (FIG. 1 and Table 1A-11) to confirm no to minimal fibrosis (METAVIR fibrosis stage F0 or F1). The PLS validation set 1 (and FPS derivation set 1) is a case-control series of 43 chronic hepatitis C patients from a prior cohort study consecutively diagnosed and followed at Johns Hopkins and Massachusetts General Hospital between 1998 and 2010. Twenty-five patients were co-infected with HIV and on anti-retroviral therapies. The patients were regularly followed up with ultrasound elastography at median interval of 1.1 (IQR: 0.6-2.0) years. Liver stiffness measurement >7.0 and >9.5 kPa were regarded as indication of F2 and F3 fibrosis, respectively. The PLS validation set 2 (and FPS derivation set 2) is a case-control series of 38 patients who consecutively underwent liver transplantation for HCV-related cirrhosis and protocol liver biopsies at year 1, 2, and 5 after transplantation (and additional biopsies as needed to evaluate graft rejection, which were excluded) at Baylor University between 2002 and 2007. Median number of biopsies was 8 (IQR: 6-9) per patient with median interval between serial biopsies of 8.6 (IQR: 0.3-12.6) months. […] The FPS derivation set 3 is a cross-sectional series of 31 NAFLD patients who underwent diagnostic liver biopsy at Hiroshima University between 2003 and 2015. The FPS derivation set 4 is a cross-sectional series of 309 NAFLD patients who underwent diagnostic liver biopsy (F0 or F1 fibrosis) at Massachusetts General Hospital between 2009 and 2016. […] The cases were defined as patients who had F-stage increase of one stage or more in the follow-up biopsy. The FPS validation set 2 includes 78 patients with fibrotic liver diseases from various etiologies, for which de-identified fresh liver tissues were available from standard-care hepatic resection for organotypic ex vivo tissue culture at University of Texas Southwestern and Mount Sinai. The FPS validation set 3 consists of NASH patients with F1-F3 fibrosis who underwent liver biopsy before and after 1-year treatment with cenicriviroc (n=9) or placebo (n=10) in the phase Ilb CENTAUR trial (NCT02217475). Decrease of one or more fibrosis stage was regarded as anti-fibrotic response. The serum surrogate FPS was assessed in archived de-identified serum samples from 79 patients with chronic liver diseases. The FPSec validation set is a cohort of 122 patients with compensated (Child-Pugh class A) cirrhosis patients with mixed etiologies enrolled at University of Michigan between 2004 and 2006 as reported in our previous study. Hepatic decompensation was defined as newly developed massive ascites, hepatic encephalopathy, bleeding from gastroesophageal varices, or liver transplantation. The study was approved by institutional review board at respective institutions with written informed consent or exemption for use of archived de-identified samples (protocol numbers: STU062018-058, STU072018-071, 2010P000220/PHS, HS13-00159).
Total RNA was isolated from fixed tissue sections by using High Pure RNA Paraffin kit (Roche), and assessed for quality by qRT-PCR of RPL13A. Total RNA from the PCLS tissues was isolated using RNeasy kit (Qiagen). RNA samples (100-200 ng) were subjected to the PLS/FPS assay implemented in the nCounter platform (NanoString), and transcriptome profiling of the CENTAUR trial samples was performed by RNA-Seq (TrueSeq RNA Access, Illumina). Expression of BCL2, COL1A1, and ACTA2 genes was measured by qRT-PCR (Table 3). Serum protein profiling was performed by using xMAP assay (Luminex). […]

[1] = Fibrosis improved, NASH patients, Hallmark set, Cell cycle, DNA damage, response
[2] = Fibrosis improved, NASH patients, Hallmark set, Cellular signaling
[3] = Fibrosis improved, NASH patients, Hallmark set, Inflammatory response, immunity
[4] = Fibrosis improved, NASH patients, Hallmark set, Metabolism, biosynthesis
[5] = Fibrosis improved, NASH patients, Hallmark set, Pathogenic response
[6] = Fibrosis improved, NASH patients, Hallmark set, Sex hormone signaling
[7] = Fibrosis improved, NASH patients, Hallmark set, Stress response
[8] = Fibrosis improved, NASH patients, Immune cell signature (GSE65136)
[9] = Fibrosis improved, NASH patients, Nuclear receptor signaling (curated pathway members)
[10] = Fibrosis improved, NASH patients, PPAR agonists on mouse primary hepatocytes (GSE27948)
[11] = Fibrosis not improved, NASH patients, Hallmark set, Cell cycle, DNA damage, response

For `CCCCOCCOc1ccc(-c2ccc3c(c2)/C=C(/C(=O)Nc2ccc([S@@+]([O-])Cc4cncn4CCC)cc2)CCCN3CC(C)C)cc1` [Cenicriviroc], the “modulation of TGF-β and PDGFRB pathways” value (1-year cenicriviroc treatment) was “unchanged”, the “proportion of patients with substantial CES reduction (FPS response)” value (CENTAUR trial, 1-year treatment, paired pre/post biopsies) was 22% and the “NES, DNA repair gene set” value [1] was 1.44. For the same molecule, the “NES, G2M checkpoint gene set” value [1] was −1.33, the “NES, Mitotic spindle gene set” value [1] was −1.61 and the “NES, Apoptosis gene set” value (Fibrosis improved, NASH patients, Hallmark set, Cell death) was 1.32. The “NES, E2F targets gene set” value [2] was −1.36, the “NES, Hedgehog signaling gene set” value [2] was −0.65 and the “NES, KRAS signaling gene set” value [2] was 1.31. For the same molecule, the “NES, Myc targets v1 gene set” value [2] was 1.56, the “NES, Myc targets v2 gene set” value [2] was 1.26 and the “NES, Notch signaling gene set” value [2] was 1.00. The “NES, PI3K/AKT/mTOR signaling gene set” value [2] was 0.91, the “NES, TGFβ signaling gene set” value [2] was 0.81 and the “NES, TNFα signaling via NF-κB gene set” value [2] was 0.96. The “NES, Wnt/β-catenin signaling gene set” value [2] was −1.07, the “NES, mTORC1 signaling gene set” value [2] was 1.71 and the “NES, p53 pathway gene set” value [2] was 1.00. For the same molecule, the “NES, Allograft rejection gene set” value [3] was 1.83, the “NES, IL2 STAT5 signaling gene set” value [3] was 0.89 and the “NES, IL6 JAK STAT3 signaling gene set” value [3] was 0.95. The “NES, Inflammatory response gene set” value [3] was 1.38, the “NES, Interferon-α response gene set” value [3] was 2.12 and the “NES, Interferon-γ response gene set” value [3] was 2.07. The “NES, Adipogenesis gene set” value [4] was 1.60, the “NES, Bile acid metabolism gene set” value [4] was 1.62 and the “NES, Cholesterol homeostasis gene set” value [4] was 1.19. For the same molecule, the “NES, Coagulation gene set” value [4] was 1.57, the “NES, Complement gene set” value [4] was 2.07 and the “NES, Fatty acid metabolism gene set” value [4] was 2.22. The “NES, Glycolysis gene set” value [4] was 1.10, the “NES, Heme metabolism gene set” value [4] was −0.98 and the “NES, Oxidative phosphorylation gene set” value [4] was 2.49. The “NES, Peroxisome gene set” value [4] was 1.49, the “NES, Protein secretion gene set” value [4] was 1.57 and the “NES, Xenobiotic metabolism gene set” value [4] was 1.66. The “NES, Angiogenesis gene set” value [5] was 1.47, the “NES, Epithelial mesenchymal transition gene set” value [5] was 1.41 and the “NES, Androgen response gene set” value [6] was 1.52. For the same molecule, the “NES, Estrogen response early gene set” value [6] was −0.79, the “NES, Estrogen response late gene set” value [6] was 1.12 and the “NES, Hypoxia gene set” value [7] was 0.97. The “NES, Myogenesis gene set” value [7] was −0.95, the “NES, Reactive oxygen species gene set” value [7] was 1.07 and the “NES, UV response up gene set” value [7] was 1.12. The “NES, Unfolded protein response gene set” value [7] was 1.34, the “NES, B cell (naïve) gene set” value [8] was −0.52 and the “NES, CD4 T cell (naïve) gene set” value [8] was −0.57. For the same molecule, the “NES, CD8 T cell gene set” value [8] was 1.13, the “NES, DC (activate) gene set” value [8] was 1.35 and the “NES, Gamma delta T cell gene set” value [8] was 1.09. The “NES, Macrophage (M1) gene set” value [8] was 1.42, the “NES, Macrophage (M2) gene set” value [8] was 2.66 and the “NES, Mast cell (active) gene set” value [8] was 1.22. For the same molecule, the “NES, Mast cell (rest) gene set” value [8] was −1.59, the “NES, Memory B cell gene set” value [8] was −0.72 and the “NES, Memory T cell (rest) gene set” value [8] was 0.80. The “NES, Monocyte gene set” value [8] was 2.81, the “NES, NK cell (rest) gene set” value [8] was 1.12 and the “NES, Neutrophil gene set” value [8] was 1.87. For the same molecule, the “NES, Plasma cell gene set” value [8] was 0.98, the “NES, Regulatory T cell gene set” value [8] was −0.99 and the “NES, T follicular helper cell gene set” value [8] was 1.22. For the same molecule, the “NES, FXR pathway gene set” value [9] was −1.06, the “NES, PPAR signaling gene set (first listed)” value [9] was 1.81 and the “NES, PPAR signaling gene set (second listed)” value [9] was 1.70. The “NES, PPARα pathway gene set (first listed)” value [9] was 1.55, the “NES, PPARα pathway gene set (second listed)” value [9] was 0.92 and the “NES, RAR/RXR pathway gene set” value [9] was −1.50. For the same molecule, the “NES, RXR/VDR pathway gene set” value [9] was −1.10, the “NES, GW7647 (PPARa agonist) gene set” value (Fibrosis improved, NASH patients, PPAR agonist on human primary hepatocytes (GSE53399)) was 1.84 and the “NES, GW501516 (PPARd agonist) gene set” value [10] was 1.16. For the same molecule, the “NES, ROSIGLITAZONE (PPARg agonist) gene set” value [10] was 1.36, the “NES, WY14643 (PPARa agonist) gene set” value [10] was 1.56 and the “NES, PDGFRB target gene signature” value (Fibrosis improved, NASH patients, iLINCS) was −0.83. The “NES, DNA repair gene set” value [11] was 0.85 and the “NES, G2M checkpoint gene set” value [11] was 2.00.
